Patent publication US10603298B2, “Succinate dehydrogenase inhibitors (SDHi's)” (Medical Research Council, priority 2014, dated 2020)
Entries after “also recorded” stand apart in the source; their conditions may differ.

How the values were obtained:
[1] = test system: mouse heart IR injury (myocardial infarction); assay: In vivo mouse cardiac IR injury (LAD ligation), infarct size by triphenyltetrazolium chloride staining; settings: dimethyl succinate 8 mg/kg/min infused in combination with dimethyl malonate
Description: For the in vivo heart IR model an open-chest, in situ heart model was used^31,32. Male mice (8-10 weeks; Charles River Laboratories, UK) were anaesthetised with sodium pentobarbital (70 mg/kg intraperitoneally (i.p.)), intubated endotracheally and ventilated with 3 cm H2O positive-end expiratory pressure. Adequacy of anaesthesia was monitored using corneal and withdrawal reflexes. Ventilation frequency was kept at 110 breaths per minute with tidal volume between 125-150 μL. A thoracotomy was performed and the heart exposed by stripping the pericardium. A prominent branch of the left anterior descending coronary artery (LAD) was surrounded by a 7-0 Prolene suture that was then passed through a small plastic tube. Ischaemia was induced by tightening the tubing against the heart surface. To assess metabolites during IR in vivo, mice were divided into three groups: 30 min ischaemia, 30 min ischaemia plus 5 min reperfusion and 30 min sham-operation in which the suture was placed but the LAD was not occluded. At the end of each protocol tissue was removed from the at risk and peripheral areas of the heart, selected visually by comparing white versus red tissue, and snap-frozen in liquid nitrogen. […] Infarct size was assessed after 30 min of ischaemia followed by 120 min reperfusion using 2% triphenyltetrazolium chloride staining and is expressed as a percentage of the risk zone^33. […]

[2] = test system: adult primary rat cardiomyocytes; assay: NAD(P)H autofluorescence in primary cardiomyocytes during in situ IR; type: cell-based; settings: 4 mM in ischaemic buffer
Description: FIG. 14: Tracking NADH reduction state in primary cardiomyocytes during in situ IR. Primary rat cardiomyocytes were subjected to 40 min ischaemia and reoxygenation and NADH reduction state was tracked throughout the experiment by measurement of NAD(P)H autofluorescence. […] Representative traces of each condition are shown. The highlighted window indicates the period of the experiment expanded in detail in FIG. 3c.
(§1) Male Sprague-Dawley rats (300-370 g) were terminally anaesthetised via IP injections of 200 mg/kg sodium pentobarbitone and 330 U/kg heparin. Hearts were excised and retrograde perfused on a Langendorff-perfusion system with 13 mL/min oxygenated KH buffer at 37° C. Cells were isolated by collagenase digestion using standard methods^41. […]
(§2) Cells were imaged within 36 hours of plating. […] Simulated ischaemia was achieved by replacing the buffer with a pre-gassed, hypoxic recording buffer simulating ischaemia (as above but lacking glucose and containing 10 mM sodium lactate, 14.8 mM KCl; pH 6.4) and by covering the heated stage with a transparent, gas-impermeant lid, forming a small chamber into which argon was forced to maintain hypoxia. pO2 was routinely measured as <2.0 mm Hg during simulated ischaemia. […]
(§3) ROS production was estimated by oxidation of DHE. […] All measured cell parameters were analysed with Fiji image processing software.

C2C12 myoblasts = assay: Succinate-dependent mitochondrial superoxide production (MitoSOX) in myoblasts; type: cell-based, mouse; settings: C2C12 cells, normoxic, mitochondria hyperpolarised with oligomycin
Description: C2C12 myoblasts were seeded in 35 mm glass bottom culture dishes (MatTek) and incubated for 24 h in low glucose (1 g/L) DMEM. 2 h prior to imaging DMEM was removed, and replaced with imaging buffer (132 mM NaCl; […]; 4.2 mM KCl; 1 mM MgCl2 1 mM CaCl2 adjusted to pH 7.4 with Tris base and supplemented with 2-deoxyglucose (25 μM), and sodium pyruvate (10 mg/L or 4 μM oligomycin as indicated). Myoblasts were pre-incubated with 2 μM MitoSOX for 15 min prior to imaging. MitoSOX fluorescence was monitored using a Nikon Eclipse Ti confocal microscope at 37° C. on a temperature controlled stage for 30 min. MitoSOX was excited at 510 nm and the emitted signal collected with a LP 560 filter following the indicated additions.

[3] = test system: adult primary rat cardiomyocytes; assay: ROS production (DHE oxidation) in adult primary cardiomyocytes during in situ IR; type: cell-based; settings: 40 min ischaemia then reoxygenation, 4 mM in ischaemic buffer
Description: FIG. 13: Tracking cardiomyocytes ROS levels in primary cardiomyocytes during in situ IR. Primary rat cardiomyocytes were subjected to 40 min ischaemia and reoxygenation with ROS levels tracked throughout the experiment by ratiometric measurement of dihydroethidium (DHE) oxidation. […] Representative traces of each condition are shown. The highlighted window indicates the period of the experiment expanded in detail in FIG. 3.a.
as §1, §2, §3

With COC(=O)CCC(=O)OC [dimethyl succinate] the “cardioprotection by dimethyl malonate after adding back dimethyl succinate” value [1] was “cardioprotection was suppressed”, the “NAD(P)H oxidation at reperfusion” value [2] was “suppressed” and the MitoSOX oxidation (C2C12 myoblasts) was “increased MitoSOX oxidation”. For the same compound, the “ROS production / DHE oxidation upon reperfusion” value [3] was “significantly increased mitochondrial ROS production during reperfusion; also recorded: amplified reperfusion DHE oxidation”.
